Results on 14 compounds are retold here after ChEMBL document CHEMBL1155219, “Rapid generation of a high quality lead for transforming growth factor-beta (TGF-beta) type I receptor (ALK5)” (J Med Chem, 2009).

A value given as a limit tells only on which side of the number the result lay.

Data set [1] concerns the target T1, TGF-beta receptor type-1 (Homo sapiens, UniProt P36897).
T1 sequence (P36897 whole entry): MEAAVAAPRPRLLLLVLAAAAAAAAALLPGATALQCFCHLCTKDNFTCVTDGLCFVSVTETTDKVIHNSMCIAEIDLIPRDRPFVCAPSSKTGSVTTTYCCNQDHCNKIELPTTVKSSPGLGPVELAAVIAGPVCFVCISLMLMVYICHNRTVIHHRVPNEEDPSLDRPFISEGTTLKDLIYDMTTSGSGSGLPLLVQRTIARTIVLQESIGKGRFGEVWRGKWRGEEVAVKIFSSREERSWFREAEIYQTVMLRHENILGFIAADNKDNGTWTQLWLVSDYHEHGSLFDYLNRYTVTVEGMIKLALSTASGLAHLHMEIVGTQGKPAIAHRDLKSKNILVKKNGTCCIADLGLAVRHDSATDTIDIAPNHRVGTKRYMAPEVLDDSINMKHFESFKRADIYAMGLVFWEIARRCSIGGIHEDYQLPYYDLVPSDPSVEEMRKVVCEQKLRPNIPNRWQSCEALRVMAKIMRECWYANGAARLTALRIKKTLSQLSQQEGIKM
The class given is cell-based, MDA-MB-468.
Description: Inhibition of ALK5 in human MDA-MB-468 cells assessed as inhibition of nuclear translocation of GFP-2/Smad2 fusion reporter gene after 90 mins by Hoechst 3342 staining-based cellomics arrayscan imaging analysis

The nature of data set [2]: in vivo. The settings on record: Han Wistar, rat, plasma, po, 5 umol/kg.
Description: AUC in Han Wistar rat at 5 umol/kg, po
Data set [3] concerns the target T1, TGF-beta receptor type-1. As to the kind of experiment: Inhibition of 6His-tagged human ALK5 expressed in baculovirus-infected SF21 cells after 30 mins by fluorescence polarization assay. Background: Fluorescence polarisation rises when a labelled molecule tumbles more slowly, as on binding a larger partner.
Data set [4] can be described thus: in vivo. The settings on record: Han Wistar, rat, po, 5 umol/kg.
Description: Oral bioavailability in Han Wistar rat at 5 umol/kg
Data set [5] can be described thus: Octanol-phosphate buffered saline partition coefficient, log D at pH 7.4.
Data set [6] in a line: Clearance in Han Wistar rat at 5 umol/kg, po. The settings on record: in vivo, iv.
Where [7] appears, read: octanol/phosphate buffered saline.

One may read the IC50 as the concentration that gives 50% inhibition. A low value points to greater potency in that assay. By AUC is commonly meant the area under the concentration-time curve, a measure of exposure. Low readings indicate less exposure, high ones more exposure. As a reminder, the bioavailability is dose-corrected exposure relative to a reference, in per cent. Higher therefore signals much systemic uptake. A word on the logD: it is lipophilicity at a set pH, counting ionised and neutral species. For the compound `Cc1cc(Oc2ccnc(Nc3ccc(S(N)(=O)=O)cc3)c2)c(-c2ccccn2)nc1C`, the half-maximal inhibitory concentration (IC50) in data set [1] is 27 nM; in data set [3] it was 21 nM. In data set [2], the exposure (AUC) worked out at 0.47 µM·h. The compound also showed a bioavailability in data set [4] of 20%. In data set [5] (setting [7]), this compound displayed a logD of 2.3.
On to `COc1ccccc1Nc1cc(Oc2cc(C)c(C)nc2-c2ccccn2)ccn1`, for which the concentration for half-maximal inhibition (IC50) came out at 114 nM in data set [1] and 7 nM in data set [3]. This compound also came in with a pH-dependent lipophilicity (logD) in data set [5] (octanol/water) of 3.4.
For the compound `COc1cc(Nc2cc(Oc3cccnc3C)ccn2)cc(OC)c1OC`, the IC50 in data set [1] came to 628 nM; in data set [3], 107 nM.
Regarding `COc1cc(Nc2cc(Oc3cccnc3)ccn2)cc(OC)c1OC`, the figures for the IC50 in data set [1] and in data set [3] were more than 5800 nM and 227 nM, respectively. This compound came in with a logD in data set [5] (setting [7]) of 2.7.
For `COc1cc(Nc2cc(Oc3cc(C)c(C)nc3-c3ccccn3)ccn2)cc(OC)c1OC`, in data set [4], the bioavailability is 4%.
As to `Cc1cc(Oc2ccnc(Nc3ccc(C(=O)N(C)C)cc3)c2)c(-c2ccccn2)nc1C`, the IC50 in data set [1] was 31 nM; in data set [3], 12 nM. In data set [5] (setting [7]), this compound came in with a logD of 3.4.
As to `Cc1cc(Oc2ccnc(Nc3ccc(N4CCOCC4)cc3)c2)c(-c2ccccn2)nc1C`, in data set [5] (setting [7]), the logD is 2.6.
Still for that read-out and setting: in the case of `Cc1cc(Oc2ccnc(Nc3cccc(N4CCOCC4)c3)c2)c(-c2ccccn2)nc1C` it was 3.3.
For `COc1cc(Nc2cc(Oc3ccc(C)nc3)ccn2)cc(OC)c1OC`, the IC50 in data set [1] amounted to 282 nM; in data set [3], 108 nM. Further, in data set [5] (octanol/water), the logD stood at 3.2.
Regarding `COc1cc(Nc2cc(Oc3ccc(C)nc3-c3ccccn3)ccn2)cc(OC)c1OC`, the IC50 in data set [1] worked out at 20 nM; in data set [3], 13 nM. The compound further returned a logD in data set [5] (setting [7]) of 3.4.
With `COc1cc(Nc2cc(Oc3ccc(C)nc3C)ccn2)cc(OC)c1OC`, the IC50 in data set [1] was found to be 21 nM. In addition, in data set [2], the AUC stood at 0.34 µM·h. The compound also had a bioavailability in data set [4] of 21%. The same compound came in with a log distribution coefficient (logD) in data set [5] (setting [7]) of 3.
On to `Cc1ccc(Oc2ccnc(Nc3ccc(S(N)(=O)=O)cc3)c2)c(C)n1`, for which the AUC in data set [2] was 4.95 µM·h. Further, the clearance in data set [6] was 12 mL/min/kg. In data set [4], this compound came in with a bioavailability of 75%. The compound further showed a pH-dependent lipophilicity (logD) in data set [5] (octanol/water) of 2.5.
On to `Cc1cc(Oc2ccnc(Nc3ccccc3N3CCOCC3)c2)c(-c2ccccn2)nc1C`, for which the logD in data set [5] (setting [7]) was determined as 3.1.
Take `Cc1cc(Oc2ccnc(Nc3ccc(F)cc3)c2)c(-c2ccccn2)nc1C`: the IC50 in data set [1] worked out at 63 nM; in data set [3], 129 nM. In data set [5] (setting [7]), the logD is 3.2.
